Results as given in US12171766B2, “Methods of treating patients suffering from brain injury and methods of increasing the value of the extended Glasgow Outcome Scale of patients suffering from brain injury” (VERINOS OPERATIONS GMBH, priority 2021, dated 2024).

How the values were obtained:
[1] = NOSTRA phase III trial: safety and adverse event analyses; format: in vivo
Procedure: Safety analyses was performed using standard descriptive methods.
The total number of treatment-emergent adverse events (TEAE) and the total number of patients with TEAEs, the total number of TEAEs related to the study drug (certain, probable, possible), the total number of patients with TEAEs related to the study drug, the total number of TEAEs and the total number of patients with serious TEAEs, the total number of patients with TEAEs leading to discontinuation of study treatment and the total number of patients with TEAEs leading to death were summarised by treatment arm.

animal models of TBI = settings: mice, Terpolilli et al. 2009; cited from earlier work
[2] = tested on: Moderate and Severe Traumatic Brain Injury; settings: cited from earlier work
[3] = may be due to over-reporting of some centres

In the case of `CC(O)C(O)C1CNc2nc(N)nc(N)c2N1` [Ronopterin, 4-Amino-(6R,S)-5,6,7,8-tetrahydro-L-biopterin], the “number of renal AEs” value ([1]; Ronopterin:placebo 11:3) is reported as 11, the “tolerability of study treatment” value ([1]; TBI patients, 17 mg/kg over 48 hours) is reported as “well-tolerated” and the “number of related AE/SAEs” value ([1]; between the groups (Ronopterin, placebo)) is reported as “low and comparable”. The “number of adverse events (AEs) and serious adverse events (SAEs) compared to placebo” value ([1]; in vivo) was “slightly higher”, the “ICP increased, number of patients” value [1, 3] was 27 patients and the “ICP increased, proportion of patients” value [1, 3] was 23.9%. For the same molecule, the “effect in animal models of TBI” value (animal models of TBI) was “beneficial”, the “effect of infusion during the initial 12 hours after TBI” value ([2]; Phase IIa trial [Stover]) was “benefits” and the “effect in phase II clinical trial” value ([2]; Stover et al. 2014 (NOSTRA phase IIa)) was “beneficial”.
